Assay results taken from patent publication US4822408A, “Alkyl-, alkenyl- and alkynylnitroguanidines as cytokinin plant growth regulants” (American Cyanamid Company, priority 1987, dated 1989).
Converted amounts (≈) assume the structure as drawn. “And” between values parts separate entries of the source, which are not always exact repeats. Equal values may be shown once. Read-outs that look alike come from different tables or passages of the source.

Assays:
cucumber cotyledon = test: tissue or blood; format: cell-based, Cucumis sativa var. National Pickling; conditions: 0.06-64 ppm typically tested, inactive if more than 200 ppm; for EC50: Cucumis sativus, read-out: ED50 (the source's name)
[1] = system: habituated callus tissue (Nicotiana tabacum A21-10H); test: Stimulation of callus growth from a habituated line of Nicotiana tabacum; format: cell-based; design: key to Chlorophyll production: -: None; +: Slight; ++: Moderate; +++: Very Good; conditions: for Callus Growth Fresh weight: 0.02 ppm naphthalene acetic acid, untreated 0.6; for Chlorophyll production: untreated -
Procedure: A specialized callus tissue (Nicotiana tabacum A21-10H) which was known to be unique in that it had been selected to no longer require cytokinins for callus to grow (this condition is known as "habituated") as long as 2 ppm naphthalene acetic acid was present in the medium, is transferred to flasks of basal media containing mineral salts based on the formulation of Murashige and Skoog, Physiologia plantarum 15: 473-497 (1962), and containing 100 mg per liter of i-inositol, 0.4 mg per liter of thiamine.HCl, and 3% sucrose (Huang, L. C. and T. Murashige 1976, TCA manual 3(1): 539-548) as well as 0.9% to 0.95% Difco® agar. The pH of the medium is adjusted to pH 5.8.
Test solutions are added from 5000 ppm stock solutions in ethanol and the stimulation of callus growth determined by the increase in fresh weight per treatment (per flask) in grams and by chlorophyll production rated as indicated in the rating system below. (No shoot regeneration can occur in this line due to the length of time (>4 years) it has been maintained in culture.)

cucumber cotyledons = test: Antagonism of cytokinin activity by a cytokinin antagonist in the cucumber cotyledon bioassay; format: cell-based, Cucumis sativa var. National Pickling
Procedure: Cucumber seeds (Cucumis sativa var. National Pickling) are germinated in vermiculite in the dark at 30° C. for 6 days. The cotyledons are subsequently excised under a dim green safelight and placed abaxial side up in […] petri dishes at 8 pairs of cotyledons per dish. The dishes also contain three layers of Whatman No. 1 filter paper and 10 mls of test solution. The dishes with cotyledons are returned to the dark at 30° C. for about 18 hours. Thereafter the dishes are placed under fluorescent light at about 12 μw per square cm for 3 hours at 25° C. The cotyledons are then blotted and placed in 5 ml of dimethylformamide overnight and at 4° C. to extract the chlorophyll. The leachate is then analyzed for absorbance at 663 nanometers by spectrophotometry (Moran and Porath Plant Physical (1980) 65: 478-9) to determine relative chlorophyll biosynthesis. The cotyledons are then measured for area by using a sensitive leaf area meter. These two parameters, chlorophyll synthesis and enhanced expansion of the cotyledons are used as a measure of relative cytokinin activity. The test solutions typically contain between 0.06 and 64 ppm of test compound, up to 1.3% acetone, and 40 mM KCl. The amount of compound is varied in order to determine the dose at which there is achieved a response which is 50% of the maximum possible enhancement, as judged by a standard. This is termed the 50% effective dose or ED50 (Table).
The above compound is a known (Hecht et al.) Biochemistry 10:4224 (1971) antagonist of the activity of cytokinins such as the natural cytokinin 6-(3-methyl-2-butenylamino)purine (2iP). For example 0.003 μM 2iP is required for maximum growth of tobacco callus tissue cultures. The antagonist decreases this effect in the range of 0.1 μM (detectable) to 0.73 μM (lethal). (Ref. Skoog et al. Phytochemistry 12: 25-37 (1973)).
Test solutions are prepared to contain a test compound in both the presence and absence of the antagonist.

Soybean callus = Soybean callus culture bioassay (definitive cytokinin activity); format: cell-based, Glycine max CV. Acme; conditions: for Callus Dry Weight / Callus Fresh Weight: 6 weeks, 3 flasks per treatment; for Callus Dry Weight: no supplement 22.2 ± 9; for Callus Fresh Weight: initial fresh weight 240 mg, no supplement 283 ± 99
Procedure: Soybean callus cultures (from Glycine max CV. Acme) are subdivided into smaller callus pieces each weighing about 80 mg each. These pieces are placed on 50 ml of agar containing nutrient medium from which the usual growth supporting cytokinin hormone has been deleted. Without cytokinin hormone, the callus tissue will not divide and grow. Any compound which can provide for growth of the callus under these circumstances is by definition a cytokinin. The test is thus definitive and diagnostic. Different flasks of the nutrient medium are therefore supplemented with either the known cytokinin N^6 -benzyladenine as a standard or with the indicated test compound. After 6 weeks of axenic culture, the callus pieces are weighed, then oven dried and weighed again, such that the amount of callus growth is determined as a function of increased tissue weight.

[2] = system: tobacco callus tissue cultures; conditions: cited from earlier work

Work on `N=C(NCCCC(N)C(=O)O)N[N+](=O)[O-]` (centres unmarked) yielded an EC50 (cucumber cotyledon) of 31 µg/mL (≈ 141 µM).
`C/C(Cl)=C/CNC(=N)N[N+](=O)[O-]` showed an EC50 (cucumber cotyledon) of 1 µg/mL (≈ 5.19 µM).
In the case of `CC(CO)CCNC(=N)N[N+](=O)[O-]` (centres unmarked), the EC50 (cucumber cotyledon) was 14 µg/mL (≈ 73.6 µM).
`C/C(=C\CNC(=N)N[N+](=O)[O-])CO` gave an EC50 (cucumber cotyledon) of 2.5 µg/mL (≈ 13.3 µM).
For `CC(C)=CCNC(=N)N[N+](=O)[O-]` [1-(3-methyl-2-butenyl)-3-nitroguanidine], the EC50 (cucumber cotyledon) was 3.8 µg/mL (≈ 22.1 µM), the “Callus Growth Fresh weight” value ([1]; Molar concentration 10^-4) was 2.9 grams per flask and the Chlorophyll production ([1]; Molar concentration 10^-4) was “++”. The “Relative Chlorophyll” value (cucumber cotyledons; Experiment B, 20 ppm, antagonist none, H2O alone 443) was 1200, the “Relative Chlorophyll” value (cucumber cotyledons; Experiment B, 20 ppm, with antagonist 10 ppm, H2O alone 443) was 388 and the “effect on callus growth at 10^-4 M” value (Soybean callus; 10^-4 M) was “extremely active”. For the same molecule, the “Callus Dry Weight” value (Soybean callus; 10^-4 M) was 410 ± 87 mg per 3 pieces and the “Callus Fresh Weight” value (Soybean callus; 10^-4 M) was 5324 ± 1148 mg per 3 pieces.
In the case of `CC(C)=CCNc1ncnc2nc[nH]c12` [2iP, 6-(3-methyl-2-butenylamino)purine], the “concentration required for maximum growth of tobacco callus tissue cultures” value [2] is listed as 0.003 µM.
In the case of `Cc1n[nH]c2c(NCCC(C)C)ncnc12` [7-(Isopentylamine)-3-methyl-1H-Pyrazolo[4,3-d]pyrimidine], the “antagonist concentration decreasing the effect of 2iP, detectable” value ([2]; detectable, against 2iP) is listed as 0.1 µM, the “antagonist concentration decreasing the effect of 2iP, lethal” value ([2]; lethal, against 2iP) is listed as 0.73 µM and the “Relative Chlorophyll” value (cucumber cotyledons) is listed as 415 and 406. The “effect of antagonist on response of cucumber cotyledons to N^6-benzyladenine” value (cucumber cotyledons) was “prevents the response of cucumber cotyledons” and the “prevention of enhancement of chlorophyll synthesis” value (cucumber cotyledons) was “able to fully prevent the enhancement of chlorophyll synthesis”.
`CC(C)CCNC(=N)N[N+](=O)[O-]` [(CH3)2 CHCH2 CH2] showed an EC50 (cucumber cotyledon) of 64 µg/mL (≈ 367 µM).
`CC(C)NC(=N)N[N+](=O)[O-]` [(CH3)2 CH] gave an ED50 (cucumber cotyledon) of 45 ppm.
`CC(C)(C)NC(=N)N[N+](=O)[O-]` [(CH3)3 C] gave an ED50 (cucumber cotyledon) of 31 ppm.
In the case of `N=C(NCCC=C(Cl)Cl)N[N+](=O)[O-]` [(Cl)2 CCHCH2 CH 2], the EC50 (cucumber cotyledon) was 11 µg/mL (≈ 48.4 µM).
Molecule `CCCCNC(=N)N[N+](=O)[O-]` [-n-C4 H9] has an EC50 (cucumber cotyledon) of 31 µg/mL (≈ 194 µM).
For `CCCCCNC(=N)N[N+](=O)[O-]` [-n-C5 H11], the EC50 (cucumber cotyledon) was 31 µg/mL (≈ 178 µM).
With `CCC(C)(C)NC(=N)N[N+](=O)[O-]` [C2 H5 C(CH3)2] the EC50 (cucumber cotyledon) was 22 µg/mL (≈ 126 µM).
`CCOCCNC(=N)N[N+](=O)[O-]` [C2 H5 OCH2 CH2] gave an EC50 (cucumber cotyledon) of 113 µg/mL (≈ 641 µM).
`C=CC(C)(C)NC(=N)N[N+](=O)[O-]` [CH2CHC(CH3)2] gave an ED50 (cucumber cotyledon) of 157 ppm.
For `C=CCNC(=N)N[N+](=O)[O-]` [CH2CHCH2], the ED50 (cucumber cotyledon) was 22 ppm.
For `COCC(C)NC(=N)N[N+](=O)[O-]` (centres unmarked) [CH3 OCH2 CH(CH3)], the EC50 (cucumber cotyledon) was 113 µg/mL (≈ 641 µM).
For `N=C(NCCCCO)N[N+](=O)[O-]` [HOCH2 CH2 CH2 CH2], the EC50 (cucumber cotyledon) was 113 µg/mL (≈ 641 µM).
In the case of `c1coc(CNc2ncnc3[nH]cnc23)c1` [Kinetin], the “Callus Growth Fresh weight” value ([1]; Molar concentration 10^-4) was 1.4 grams per flask, the Chlorophyll production ([1]; Molar concentration 10^-4) was “-” and the “Callus Growth Fresh weight” value ([1]; Molar concentration 10^-5) was 0.8 grams per flask. For the same molecule, the Chlorophyll production ([1]; Molar concentration 10^-5) was “-”, the “Callus Growth Fresh weight” value ([1]; Molar concentration 10^-6) was 0.3 grams per flask and the Chlorophyll production ([1]; Molar concentration 10^-6) was “-”. For the same molecule, the “Callus Growth Fresh weight” value ([1]; Molar concentration 10^-7) was 0.2 grams per flask, the Chlorophyll production ([1]; Molar concentration 10^-7) was “-” and the “efficacy in the habituated callus system” value ([1]; reduced auxin level (0.02 ppm naphthalene acetic acid)) was “ineffective”.
In the case of `c1ccc(CNc2ncnc3nc[nH]c23)cc1` [N^6 benzyladenine, N^6 -benzyladenine], the “Relative Chlorophyll” value (cucumber cotyledons; Experiment A, 0.1 ppm, antagonist none, H2O alone 370) was 853, the “Relative Chlorophyll” value (cucumber cotyledons; Experiment A, 0.1 ppm, with antagonist 10 ppm, H2O alone 370) was 460 and the “optimum concentration of the standard” value (Soybean callus) was 10^-6 M. The “effect on callus growth at 10^-4 M” value (Soybean callus; 10^-4 M) was “supraoptimal effect whereby the beneficial effect was negated”, the “Callus Dry Weight” value (Soybean callus; 10^-4 M) was 28 ± 5 mg per 3 pieces and the “Callus Fresh Weight” value (Soybean callus; 10^-4 M) was 434 ± 193 mg per 3 pieces. The “Callus Dry Weight” value (Soybean callus; 10^-6 M) was 351 ± 63 mg per 3 pieces and the “Callus Fresh Weight” value (Soybean callus; 10^-6 M) was 5826 ± 1110 mg per 3 pieces.
